Positions of bridges follow the written chain, without caps; N, C: chain ends. Non-standard residues stand in square brackets, D forms with d. Residues, ends and D or L forms follow the SMILES beside them. NMePhe(4-NO2) = CN[C@@H](Cc1ccc([N+](=O)[O-])cc1)C(=O)O; Phe(4-NO2) = N[C@@H](Cc1ccc([N+](=O)[O-])cc1)C(=O)O; 2Nal = N[C@@H](Cc1ccc2ccccc2c1)C(=O)O; d2Nal = N[C@H](Cc1ccc2ccccc2c1)C(=O)O; Abu = CC[C@H](N)C(=O)O

These results are taken from patent publication EP0791603A2, “Pure somatostatin antagonist and methods of use thereof” (American Cyanamid Company, priority 1996, dated 1997).

Assay [1] addresses T1, rat somatostatin receptor subtype 2 (SSTR2) (Rattus norvegicus, UniProt P30680).
T1 construct: expressed in transfected cells; host or cells: Saccharomyces cerevisiae LY364
Nature of the assay: Yeast assay, somatostatin agonist activity (growth zone of modified yeast cells on histidine-free agar). The format is cell-based. Conditions: rating on a scale of 1-5 from zone of growing cells; S. Cerevisiae LY364. The protocol:
In this evaluation, yeast cells which have been specifically modified to functionally express rat somatostatin receptor subtype 2 (SSTR2) on their cell surfaces are used. S. Cerevisiae LY364 cells are plated in a standard synthetic agar medium which lacks histidine. In the absence of a somatostatin receptor agonist, the auxotrophic (his3) cells are unable to grow. In the presence of somatostatin, or a somatostatin agonist, the expression of an enzyme (His3p: imidazole-glycerol phosphate dehydratase) which is essential for histidine biosynthesis is induced. The cells become competent to produce histidine, resulting in a zone of growing cells around the applied test compound. The zone is measured and the test compound is given an agonist rating on a scale of 1-5 wherein 1 is minimum agonist activity and 5 is maximum agonist activity.
SCD-ura-trp: • 1) To 500 mL water add: • 1.7 g YNB without amino acids and (NH4)2SO4 • 5.0 g (NH4)2SO4 • 0.7 g CSM-ura-trp • 2) To additional 500 mL water add: 20 g Dextrose • 3) Autoclave separately. Mix.
SCL-ura-trp: • 1) To 500 mL water add: • 1.7 g YNB without amino acids and (NH4)2SO4 • 5.0 g (NH4)2SO4 • 0.7 g CSM-ura-trp • 2) To additional 500 mL water add: 30 mL Lactic Acid • 3) Autoclave separately. Mix.
SCG-ura-trp: • 1) To 500 mL water add: • 1.7 g YNB without amino acids and (NH4)2SO4 • 5.0 g (NH4)2SO4 • 0.7 g CSM-ura-trp • 2) To additional 500 mL water add: 30 g D-Galactose • 3) Autoclave separately. Mix.
SCG-ura-trp-his agar medium, pH 6.8: • 1) To 500 mL water add: • 1.7 g YNB without amino acids and (NH4)2SO4 • 5.0 g (NH4)2SO4 • 0.7 g CSM-ura-trp-his • Stirring Bar • 2) Adjust pH to 6.8-6.9 by dropwise addition of conc. NH4OH • 3) To additional 500 mL water add: 30 g D-Galactose, 20 g Agar • 4) Autoclave separately. • 5) Stir to mix thoroughly. • 6) Equilibrate temperature to 55°C. YNB without amino acids and (NH4)2SO4, CSM-ura-trp, and CSM-ura-trp-his are manufactured by Bio101. Ammonium sulfate ((NH4)2SO4), Dextrose (D-glucose), D-Galactose, and Lactic Acid are manufactured by Sigma.
(§1) • 1) Inoculate 2 mL SCD-ura-trp liquid medium in Falcon 2051 tube with a single colony taken from a plate containing LY364 (MATa ura3-52 leu2 his3 trp1 lys2 ade2 far1:: LYS2 fus1:: FUS1-HIS3 gpal::hisG sst2::ADE2 bearing the SSTR2 expression plasmid, pJH2, and the G protein expression plasmid, pLP82)cells. • 2) Incubate overnight in a roller drum at 30°C.
(§2) Day 2. • 1) Harvest the cells by centrifugation (3 krpm, 5 min, room temp). • 2) Re-suspend with 5 mL of sterile water. • 3) Harvest again by centrifugation. • 4) Re-suspend in 5 mL SCL-ura-trp liquid medium. • 5) Incubate for 6 hours in a roller drum at 30°C. • 6) Harvest the cells again by centrifugation. • 7) Re-suspend in 5 mL SCG-ura-trp liquid medium. • 8) Incubate overnight in a roller drum at 30°C.
(§3) Day 3. • 1) Autoclave SCG-ura-trp-his pH 6.8 agar medium. • 2) Cool to 55°C in water bath. • 3) Add 1 mL of LY364 culture to 1 liter of agar medium. • 4) Stir vigorously for 1 min. • 5) Pour 150 mL each into five 500 cm^2 plates. • 6) Allow to cool on level surface. • 7) Apply test compound.
(§4) On day 3, add 5µL 1 mg/mL S-14 to each plate. Day 5. Begin checking plates for growth around applied compounds. Day 7. Growth in response to somatostatin should be readily observable. Rate extent of growth or inhibition of growth according to rating scale described hereinabove.

Assay [2] deals with T1, rat somatostatin receptor subtype 2 (SSTR2). Nature of the assay: Yeast assay, somatostatin antagonist activity (zone of no growth in presence of S-14). Conditions: rating on a scale of 1-5 from zone of no growth; 5µL of 1 mg/mL S-14 added to each plate; S. Cerevisiae LY364. Set-up: key: 1 is minimum antagonist activity; 5 is maximum antagonist activity; -: When no activity is observed, the result is indicated by a dash. The format is cell-based. The protocol: To evaluate the somatostatin antagonist activity of a test compound, the above procedure is followed except on day 3, 5µL of 1 mg/mL of somatostatin, S-14, is added to each plate, before applying the test compound. If the test compound is an antagonist of somatostatin, then a zone of no growth will appear within the cell growth zone. This zone of no growth is measured and the test compound is given an antagonist rating on a scale of 1-5 wherein 1 is minimum antagonist activity and 5 is maximum antagonist activity.
The results are shown in Table I. When no activity is observed, the result is indicated by a dash.
as §1, §2, §3, §4

T1 sequence (P30680 whole entry): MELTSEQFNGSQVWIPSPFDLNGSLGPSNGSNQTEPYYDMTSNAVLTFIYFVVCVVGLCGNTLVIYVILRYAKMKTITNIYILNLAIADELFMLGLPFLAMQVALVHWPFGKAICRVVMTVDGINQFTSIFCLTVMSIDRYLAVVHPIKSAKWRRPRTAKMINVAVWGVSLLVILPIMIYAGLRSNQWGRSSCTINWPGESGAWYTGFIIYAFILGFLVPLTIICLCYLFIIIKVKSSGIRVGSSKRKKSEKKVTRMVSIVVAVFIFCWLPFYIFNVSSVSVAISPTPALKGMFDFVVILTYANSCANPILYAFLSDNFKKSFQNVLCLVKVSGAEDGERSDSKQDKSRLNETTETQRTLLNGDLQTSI

For the compound `C[C@@H](O)[C@@H]1NC(=O)[C@H](CCCCN)NC(=O)[C@@H](Cc2c[nH]c3ccccc23)NC(=O)[C@H](Cc2ccc(O)cc2)NC(=O)[C@H](NC(=O)[C@@H](N)Cc2ccc([N+](=O)[O-])cc2)CSSC[C@@H](C(=O)N[C@H](Cc2ccc(O)cc2)C(N)=O)NC1=O`, the “Yeast Assay Agonist” value in assay [1] was “-”. Moreover, the “Yeast Assay Antagonist” value in assay [2] is 4.

As to `C[C@@H](O)[C@@H]1NC(=O)[C@H](CCCCN)NC(=O)[C@@H](Cc2c[nH]c3ccccc23)NC(=O)[C@H](Cc2ccc(O)cc2)NC(=O)[C@H](NC(=O)[C@@H](N)Cc2ccc([N+](=O)[O-])cc2)CSSC[C@@H](C(=O)N[C@@H](Cc2ccc(O)cc2)C(N)=O)NC1=O`, the “Yeast Assay Agonist” value in assay [1] is given as “-”. For the same compound, in assay [2], the “Yeast Assay Antagonist” value is 5.

Take `CC(=O)N[C@@H](Cc1ccc([N+](=O)[O-])cc1)C(=O)N[C@@H]1CSSC[C@@H](C(=O)N[C@H](Cc2ccc(O)cc2)C(N)=O)NC(=O)[C@H]([C@@H](C)O)NC(=O)[C@H](CCCCN)NC(=O)[C@@H](Cc2c[nH]c3ccccc23)NC(=O)[C@H](Cc2ccc(O)cc2)NC1=O`: the “Yeast Assay Agonist” value in assay [1] is listed as “-”. Also, the “Yeast Assay Antagonist” value in assay [2] was determined as 4.

Regarding `CC(=O)N[C@@H](Cc1ccc2ccccc2c1)C(=O)N[C@@H]1CSSC[C@@H](C(=O)N[C@@H](Cc2ccc(O)cc2)C(N)=O)NC(=O)[C@H]([C@@H](C)O)NC(=O)[C@H](CCCCN)NC(=O)[C@@H](Cc2c[nH]c3ccccc23)NC(=O)[C@H](Cc2ccc(O)cc2)NC1=O` (Ac-[2Nal][dC]Y[dW]KTCY-NH2; disulfide 2-7 (inferred)), the “Yeast Assay Agonist” value in assay [1] was “-”. In addition, the “Yeast Assay Antagonist” value in assay [2] is on record as 1.

As for `CC(C)[C@@H]1NC(=O)[C@H](CCCCN)NC(=O)[C@@H](Cc2c[nH]c3ccccc23)NC(=O)[C@H](Cc2ccc(O)cc2)NC(=O)[C@H](NC(=O)[C@@H](N)Cc2ccc3ccccc3c2)CSSC[C@@H](C(=O)N[C@@H](Cc2ccc(O)cc2)C(N)=O)NC1=O` (H-[2Nal][dC]Y[dW]KVCY-NH2; disulfide 2-7; N-terminus assumed), the “Yeast Assay Agonist” value in assay [1] was “-”. The “Yeast Assay Antagonist” value in assay [2] stood at 3.

For the compound `CN[C@@H](Cc1ccc([N+](=O)[O-])cc1)C(=O)N[C@@H]1CSSC[C@@H](C(=O)N[C@@H](Cc2ccc(O)cc2)C(N)=O)NC(=O)[C@H](C(C)C)NC(=O)[C@H](CCCCN)NC(=O)[C@@H](Cc2c[nH]c3ccccc23)NC(=O)[C@H](Cc2ccc(O)cc2)NC1=O` (H-[NMePhe(4-NO2)][dC]Y[dW]KVCY-NH2; disulfide 2-7 (inferred)), in assay [1], the “Yeast Assay Agonist” value is recorded as “-”. For the same compound, the “Yeast Assay Antagonist” value in assay [2] stood at 5.

Regarding `CC(C)[C@@H]1NC(=O)[C@H](CCCCN)NC(=O)[C@@H](Cc2c[nH]c3ccccc23)NC(=O)[C@H](Cc2ccc(O)cc2)NC(=O)[C@H](NC(=O)[C@@H](N)Cc2ccc([N+](=O)[O-])cc2)CSSC[C@@H](C(=O)N[C@@H](Cc2ccc(O)cc2)C(N)=O)NC1=O` (H-[Phe(4-NO2)][dC]Y[dW]KVCY-NH2; disulfide 2-7 (inferred)), the “Yeast Assay Agonist” value in assay [1] is “-”. Besides, the “Yeast Assay Antagonist” value in assay [2] is on record as 5.

Regarding `CC(C)[C@@H]1NC(=O)[C@H](CCCCN)NC(=O)[C@@H](Cc2c[nH]c3ccccc23)NC(=O)[C@H](Cc2ccc(O)cc2)NC(=O)[C@H](NC(=O)[C@@H](N)Cc2ccc([N+](=O)[O-])cc2)CSSC[C@@H](C(=O)N[C@@H](Cc2ccc3ccccc3c2)C(N)=O)NC1=O` (H-[Phe(4-NO2)][dC]Y[dW]KVC[2Nal]-NH2; disulfide 2-7 (inferred)), the “Yeast Assay Agonist” value in assay [1] is on record as “-”. For the same compound, the “Yeast Assay Antagonist” value in assay [2] is listed as 2.

On to `CC[C@@H]1NC(=O)[C@H](CCCCN)NC(=O)[C@@H](Cc2c[nH]c3ccccc23)NC(=O)[C@H](Cc2ccc(O)cc2)NC(=O)[C@H](NC(=O)[C@@H](N)Cc2ccc([N+](=O)[O-])cc2)CSSC[C@@H](C(=O)N[C@@H](Cc2ccc(O)cc2)C(N)=O)NC1=O` (H-[Phe(4-NO2)][dC]Y[dW]K[Abu]CY-NH2; disulfide 2-7 (inferred)), for which the “Yeast Assay Agonist” value in assay [1] is “-”. The “Yeast Assay Antagonist” value in assay [2] is given as 3.

For the compound `CC(C)[C@@H]1NC(=O)[C@H](CCCCN)NC(=O)[C@@H](Cc2c[nH]c3ccccc23)NC(=O)[C@H](Cc2ccc(O)cc2)NC(=O)[C@H](NC(=O)[C@H](N)Cc2ccc3ccccc3c2)CSSC[C@@H](C(=O)N[C@@H](Cc2ccc(O)cc2)C(N)=O)NC1=O` (H-[d2Nal][dC]Y[dW]KVCY-NH2; disulfide 2-7), in assay [1], the “Yeast Assay Agonist” value is “-”. Further, in assay [2], the “Yeast Assay Antagonist” value came to 2.
